Where a SMILES comes first, the peptide text is derived from it. [ ]: non-standard residue; d: D form. Dmt = Cc1cc(O)cc(C)c1C[C@H](N)C(=O)O
molecular target: T1, Mu-type opioid receptor (Rattus norvegicus, UniProt P33535); experiment: Inhibition of DAMGO (Tyr-[D-Ala]-Gly-[NMe-Phe]-Gly-ol) binding to rat brain opioid receptor
T1 sequence (P33535 whole entry): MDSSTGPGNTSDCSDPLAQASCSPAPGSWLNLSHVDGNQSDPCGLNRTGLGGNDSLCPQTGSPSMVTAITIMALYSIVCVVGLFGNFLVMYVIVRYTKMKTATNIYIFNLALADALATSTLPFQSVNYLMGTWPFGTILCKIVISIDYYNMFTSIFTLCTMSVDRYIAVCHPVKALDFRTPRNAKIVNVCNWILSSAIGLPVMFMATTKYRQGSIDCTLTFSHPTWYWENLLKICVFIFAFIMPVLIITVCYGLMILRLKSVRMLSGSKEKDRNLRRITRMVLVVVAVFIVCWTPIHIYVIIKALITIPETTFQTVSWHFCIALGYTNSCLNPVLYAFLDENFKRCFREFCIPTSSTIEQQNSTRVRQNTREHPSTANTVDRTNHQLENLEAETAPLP

Point of comparison: `C[C@@H](c1ccccc1)[C@H](NC(=O)[C@H](Cc1ccccc1)NC(=O)[C@@H]1CCCN1C(=O)[C@@H](N)Cc1ccc(O)cc1)C(N)=O`, Ki 0.8 nM. Against it:
- C[C@H](c1ccccc1)[C@H](NC(=O)[C@H](Cc1ccccc1)NC(=O)[C@@H]1CCCN1C(=O)[C@@H](N)Cc1ccc(O)cc1)C(N)=O — 33-fold higher, 26.3 nM
- C[C@@H](c1ccccc1)[C@@H](NC(=O)[C@H](Cc1ccccc1)NC(=O)[C@@H]1CCCN1C(=O)[C@@H](N)Cc1ccc(O)cc1)C(N)=O — 130-fold higher, 107 nM

molecular target: T1, Mu-type opioid receptor; experiment: Inhibition of DAMGO (Tyr-[D-Ala]-Gly-[NMe-Phe]-Gly-ol) binding torat brain mu opioid receptor

Molecule `C[C@H](c1ccccc1)[C@@H](NC(=O)[C@H](Cc1ccccc1)NC(=O)[C@@H]1CCCN1C(=O)[C@@H](N)Cc1ccc(O)cc1)C(N)=O` has a Ki of 45.3 nM.

molecular target: Mu-type opioid receptor (Mus musculus, UniProt P42866); experiment: Inhibition of DAMGO (Tyr-[D-Ala]-Gly-[NMe-Phe]-Gly-ol) binding to mouse brain mu opioid receptor
Sequence (P42866 whole entry): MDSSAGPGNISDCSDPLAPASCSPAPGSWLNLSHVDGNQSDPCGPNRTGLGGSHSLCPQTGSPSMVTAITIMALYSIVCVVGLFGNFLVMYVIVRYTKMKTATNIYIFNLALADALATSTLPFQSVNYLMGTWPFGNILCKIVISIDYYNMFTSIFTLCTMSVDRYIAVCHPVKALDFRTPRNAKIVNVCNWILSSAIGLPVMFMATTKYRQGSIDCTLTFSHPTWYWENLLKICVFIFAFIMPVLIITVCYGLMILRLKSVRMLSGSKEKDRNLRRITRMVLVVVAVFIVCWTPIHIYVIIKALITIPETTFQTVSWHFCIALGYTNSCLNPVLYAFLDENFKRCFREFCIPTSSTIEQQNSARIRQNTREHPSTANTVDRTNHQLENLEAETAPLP

Point of comparison: `NC(=O)[C@H](Cc1ccccc1)NC(=O)[C@H](Cc1ccccc1)NC(=O)[C@@H]1Cc2ccccc2[C@@H]1NC(=O)[C@@H](N)Cc1ccc(O)cc1`, Ki 1000 nM. Against it:
- NC(=O)[C@H](Cc1ccccc1)NC(=O)[C@@H]1Cc2ccccc2[C@@H]1NC(=O)[C@@H]1CCCN1C(=O)[C@@H](N)Cc1ccc(O)cc1 — 3.4-fold lower, 298 nM
- NC(=O)[C@H](Cc1ccccc1)NC(=O)[C@H](Cc1ccccc1)NC(=O)[C@H]1Cc2ccccc2[C@H]1NC(=O)[C@@H](N)Cc1ccc(O)cc1 — 4.1-fold lower, 241 nM
- NC(=O)[C@H](Cc1ccccc1)NC(=O)[C@H]1Cc2ccccc2[C@H]1NC(=O)[C@@H]1CCCN1C(=O)[C@@H](N)Cc1ccc(O)cc1 — 7.8-fold lower, 128 nM

species on record: Rattus norvegicus; experiment: Antinidatory effect was determined in rat; format: functional; design: unit not given here

Point of comparison: `CCOCCCC[C@H](O)/C=C/[C@@H]1[C@@H](C/C=C\CCCC(=O)O)[C@@H](O)C[C@H]1O`, “Log ED50” value 0.699. Against it:
- O=C(O)/C=C/C/C=C/C[C@@H]1[C@@H](/C=C/[C@@H](O)COc2cccc(Cl)c2)[C@H](O)C[C@@H]1O — higher, 2
- CCCOCCC[C@H](O)/C=C/[C@@H]1[C@@H](C/C=C\CCCC(=O)O)[C@@H](O)C[C@H]1O — lower, -0.602
- O=C(O)/C=C/C/C=C\C[C@@H]1[C@@H](/C=C/[C@@H](O)COc2ccc(Cl)cc2)[C@H](O)C[C@@H]1O — higher, 2
- O=C(O)/C=C/C/C=C\C[C@@H]1[C@@H](/C=C/[C@@H](O)COc2ccccc2)[C@H](O)C[C@@H]1O — higher, 2.481
- CCCCCCOC[C@H](O)/C=C/[C@@H]1[C@@H](C/C=C\CCCC(=O)O)[C@@H](O)C[C@H]1O — the same, 0.699
- CCCC(C)(C)C[C@H](O)/C=C/[C@@H]1[C@@H](C/C=C\CCCC(=O)O)[C@@H](O)C[C@H]1O — lower, 0.279
- O=C(O)CCC/C=C\C[C@@H]1[C@@H](/C=C/[C@@H](O)COc2ccc(F)cc2)[C@H](O)C[C@@H]1O — higher, 2.301
- CCCOC[C@H](O)/C=C/[C@@H]1[C@@H](C/C=C\CCCC(=O)O)[C@@H](O)C[C@H]1O — lower, 0.398
- CCCCOCC[C@H](O)/C=C/[C@@H]1[C@@H](C/C=C\CCCC(=O)O)[C@@H](O)C[C@H]1O — lower, -0.301
- COc1cccc(C#C[C@H](O)/C=C/[C@@H]2[C@@H](CCCCCCC(=O)O)[C@@H](O)C[C@H]2O)c1 — higher, 2
- O=C(O)CCC/C=C\C[C@@H]1[C@@H](/C=C/[C@@H](O)C#Cc2ccccc2)[C@H](O)C[C@@H]1O — higher, 1.699
- CCCCCOC[C@H](O)/C=C/[C@@H]1[C@@H](C/C=C\CCCC(=O)O)[C@@H](O)C[C@H]1O — higher, 1
- O=C(O)CCC/C=C/C[C@@H]1[C@@H](/C=C/[C@@H](O)C2CC2c2ccccc2)[C@H](O)C[C@@H]1O (stereo not given in full) — higher, 1.398
- CCCCOC[C@H](O)/C=C/[C@@H]1[C@@H](C/C=C\CCCC(=O)O)[C@@H](O)C[C@H]1O — higher, 1
- O=C(O)/C=C\CCCC[C@@H]1[C@@H](/C=C/[C@@H](O)COc2cccc(C(F)(F)F)c2)[C@H](O)C[C@@H]1O — lower, 0.482
- O=C(O)CCC/C=C\C[C@@H]1[C@@H](/C=C/[C@@H](O)C#CC2CCCCC2)[C@H](O)C[C@@H]1O — higher, 1.959
- O=C(O)C/C=C/C=C\C[C@@H]1[C@@H](/C=C/[C@@H](O)COc2ccccc2)[C@H](O)C[C@@H]1O — lower, 0
- O=C(O)/C=C/C=C/C=C/[C@@H]1[C@@H](/C=C/[C@@H](O)COc2ccccc2)[C@H](O)C[C@@H]1O — the same, 0.699
- O=C(O)/C=C/C=C/C=C/[C@@H]1[C@@H](/C=C/[C@@H](O)COc2cccc(Cl)c2)[C@H](O)C[C@@H]1O — the same, 0.699
- CCCCC(C)(C)[C@H](O)/C=C/[C@@H]1[C@@H](C/C=C\CCCC(=O)O)[C@@H](O)C[C@H]1O — lower, 0.081
- O=C(O)CCC/C=C\C[C@@H]1[C@@H](/C=C/[C@@H](O)C#Cc2ccco2)[C@H](O)C[C@@H]1O — lower, 0
- O=C(O)CCC/C=C\C[C@@H]1[C@@H](/C=C/[C@@H](O)C#Cc2cccs2)[C@H](O)C[C@@H]1O — within 0.2 log units, 0.602
- O=C(O)C/C=C/C=C\C[C@@H]1[C@@H](/C=C/[C@@H](O)COc2cccc(Cl)c2)[C@H](O)C[C@@H]1O — higher, 2.886
- O=C(O)CCC/C=C\C[C@@H]1[C@@H](/C=C/[C@@H](O)c2ccc(C(F)(F)F)cc2)[C@H](O)C[C@@H]1O — higher, 1.699
- O=C(O)/C=C/C=C/CC[C@@H]1[C@@H](/C=C/[C@@H](O)COc2cccc(Cl)c2)[C@H](O)C[C@@H]1O — within 0.2 log units, 0.777
- O=C(O)/C=C/C/C=C\C[C@@H]1[C@@H](/C=C/[C@@H](O)COc2cccc(Cl)c2)[C@H](O)C[C@@H]1O — higher, 2.301
- CCCCCCC[C@H](O)/C=C/[C@@H]1[C@@H](C/C=C\CCCC(=O)O)[C@@H](O)C[C@H]1O — within 0.2 log units, 0.669
- O=C(O)CC/C=C\CC[C@@H]1[C@@H](/C=C/[C@@H](O)CCc2ccccc2)[C@H](O)C[C@@H]1O — higher, 2.301
- COCCCCC[C@H](O)/C=C/[C@@H]1[C@@H](C/C=C\CCCC(=O)O)[C@@H](O)C[C@H]1O — lower, 0.398
- CCC(C)(C)CC[C@H](O)/C=C/[C@@H]1[C@@H](C/C=C\CCCC(=O)O)[C@@H](O)C[C@H]1O — within 0.2 log units, 0.664
- O=C(O)CCC/C=C\C[C@@H]1[C@@H](/C=C/[C@@H](O)/C=C/c2ccccc2)[C@H](O)C[C@@H]1O — lower, -0.602
- O=C(O)/C=C/C/C=C\C[C@@H]1[C@@H](/C=C/[C@@H](O)COc2cccc(C(F)(F)F)c2)[C@H](O)C[C@@H]1O — higher, 2
- O=C(O)C/C=C/C=C/C[C@@H]1[C@@H](/C=C/[C@@H](O)COc2ccccc2)[C@H](O)C[C@@H]1O — higher, 1.699
- O=C(O)/C=C/CCCC[C@@H]1[C@@H](/C=C/[C@@H](O)COc2cccc(C(F)(F)F)c2)[C@H](O)C[C@@H]1O — within 0.2 log units, 0.602

molecular target: T1, Mu-type opioid receptor; experiment: Inhibition of DAMGO (Tyr-[D-Ala]-Gly-[NMe-Phe]-Gly-ol) binding to rat brain mu opioid receptor

Point of comparison: `NC(=O)C(Cc1ccccc1)NC(=O)[C@H](Cc1ccccc1)NC(=O)[C@H]1Cc2ccccc2CN1C(=O)[C@@H](N)Cc1ccc(O)cc1` (single isomer, unassigned), Ki 167 nM. Against it:
- Cc1cc(O)cc(C)c1C[C@H](N)C(=O)N1CCC[C@H]1C(=O)N[C@@H](Cc1ccccc1)C(=O)N[C@@H](Cc1c[nH]c2ccccc12)C(N)=O (H-[Dmt]PFW-NH2) — 12000-fold lower, 0.014 nM
- Cc1cc(O)cc(C)c1C[C@H](N)C(=O)N1CCC[C@H]1C(=O)N[C@@H](Cc1ccccc1)C(=O)N[C@@H](Cc1ccccc1)C(N)=O — 800-fold lower, 0.21 nM
- Cc1cc(O)cc(C)c1C[C@H](N)C(=O)N1CCC[C@H]1C(=O)N[C@@H](Cc1ccccc1)C(=O)N[C@H](C(N)=O)[C@@H](C)c1ccccc1 — 480-fold lower, 0.35 nM
- NC(=O)[C@H](Cc1c[nH]c2ccccc12)NC(=O)[C@H](Cc1ccccc1)NC(=O)[C@@H]1CCCN1C(=O)[C@@H](N)Cc1ccc(O)cc1 (H-YPFW-NH2) — 40-fold lower, 4.21 nM
- NC(=O)[C@@H]1CCCN1C(=O)[C@H](Cc1ccccc1)NC(=O)[C@@H]1CCCN1C(=O)[C@@H](N)Cc1ccc(O)cc1 [MORPHICEPTIN] (H-YPFP-NH2) — 2.1-fold lower, 80 nM
- C[C@@H](NC(=O)[C@@H](N)Cc1ccc(O)cc1)C(=O)N[C@@H](Cc1ccccc1)C(=O)NC(Cc1ccccc1)C(N)=O (single isomer, unassigned) — 540-fold lower, 0.31 nM
